From patent publication US20250257034A1, “INDOLE DERIVATIVES AS SEROTONERGIC AGENTS USEFUL FOR THE TREATMENT OF DISORDERS RELATED THERETO” (priority 2023, published 2025)
Values joined by “and” are separate entries in the source; they are usually repeats but may differ in a detail not shown here. Identical values can stand only once. Like-named read-outs stand apart in the source and are kept apart here.

How the values were obtained:
[1] = Pharmacokinetic studies in rat (i.v.); assay type: in vivo; settings: rat plasma; for Apparent t1/2 / half-life: estimated from 2 points only; for concentration at 0.25 h / concentration at 1 h / concentration at 4 h / AUC(0-t) / half-life: male, Sprague-Dawley, rat, plasma, iv; for concentration at 0.25 h / concentration at 1 h / concentration at 4 h: read-out: Plasma concentration; for AUC(0-t): read-out: AUC0-tlast; for half-life: read-out: Apparent t1/2 (converted)
Experimental: Animals: Male Sprague-Dawley rats (˜225-350 g) from Charles River Labs were acclimatized for a minimum of 5 days prior to start of study procedures. Body weights were recorded on the day of dosing.
Any abnormalities were documented including presence/absence of wet dog shakes/back muscle contractions (WDS/BMC).
Dosing: Formulations were administered intravenously (i.v.) via the tail vein using a 25 G needle connected to a 1 cc syringe.
The Compounds of Formula (I) were freshly prepared at the appropriate concentrations in 5% Tween-80 in saline.
Blood collection time (h): 0.25, 1 and 4.
Volume/time-point: ˜0.25 mL […] (saphenous vein).
Instrumentation: AB Sciex QTRAP 4000 or 6500 MS/MS system equipped with an LC system with a binary pump, a solvent degasser, a thermostatted column compartment and a multiplate autosampler.
Analysis software: Phoenix® WinNonlin® 8.3 (Pharsight, Certara, Mountainview, CA).
Analysis methods: non-compartmental analysis, linear up/log down trapezoidal rule.
PK parameters: t1/2 and AUC0-tlast were be estimated.
Volume/time-point: ˜0.25 mL (saphenous vein).
PK parameters: t1/2 and AUC0-tlast were estimated.

human 5-HT2A receptor = human 5-HT2A receptor (Homo sapiens, UniProt P28223); test: Human 5-HT2A radioligand binding assay ([3H]-ketanserin); design: expressed in transfected cells; host or cells: HTR2A&Gα15-HEK293 (tetracycline induction)
Experimental: The objective of this study was to evaluate the binding properties of exemplary compounds of Formula (I) on 5-hydroxytryptamine receptor 2A (5-HT2A).
1. The assay buffer was prepared following Table 13 below.
Adjust pH to 7.4 followed by […] sterile filtration
2. 8 doses of reference and test compounds starting from 10 mM stock solution as required was prepared by 5-fold serial dilutions with 100% (v/v) DMSO.
3. UniFilter-96 GF/B plate was pretreated: • i. 50 μl/well of 0.5% (v/v) PEI was added to UniFilter-96 […] plates. The plates were sealed and incubated at 4° C. for 3 hrs. • ii. After incubation, the plates were washed 3 times with ice-cold wash buffer (50 mM Tris, pH7.4).
4. The assay plate was prepared: • i. Cell membrane was diluted with assay buffer and 330 μl/well was added to 96 round deep well plates to reach a concentration of 20 μg/well. • ii. 8 concentrations of reference or test compounds were prepared and 110 μl/well was added to 96 round deep well plates. • iii. [3H]-ketanserin was diluted with assay buffer to 5 nM (5×final concentration) and 110 μl/well was added to 96 round deep well plates.
5. The plate was centrifuged at 1000 rpm for 30 secs and then agitated at 600 rpm, R.T. for 5 min. […]
7. The incubation was stopped by vacuum filtration onto GF/B filter plates followed by 4 times washing with ice-cold wash buffer (50 mM Tris, pH7.4).
9. The filter plates were sealed and 40 μl/well of scintillation cocktail was added.
10. The plate was read by using a Microbeta^2 microplate counter.
1. For reference and test compounds, the results were expressed as % Inhibition, using the normalization equation: N=100−100×(U-C2)/(C1-C2), where U is the unknown value, C1 is the average of high controls, and C2 is the average of low controls.
2. The IC50 was determined by fitting percentage of inhibition as a function of compound concentrations with Hill equation using XLfit. […]

[2] = I-13 1.14 mg/kg i.v., individual rats R04-R06, 1.14 mg/kg
[3] = 1.14 mg/kg, I-13 1.14 mg/kg i.v., individual rats R04-R06
[4] = I-19 1.2 mg/kg i.v., individual rats R07-R09, 1.2 mg/kg
[5] = 1.2 mg/kg, I-19 1.2 mg/kg i.v., individual rats R07-R09

Chain of human 5-HT2A receptor (P28223 whole entry): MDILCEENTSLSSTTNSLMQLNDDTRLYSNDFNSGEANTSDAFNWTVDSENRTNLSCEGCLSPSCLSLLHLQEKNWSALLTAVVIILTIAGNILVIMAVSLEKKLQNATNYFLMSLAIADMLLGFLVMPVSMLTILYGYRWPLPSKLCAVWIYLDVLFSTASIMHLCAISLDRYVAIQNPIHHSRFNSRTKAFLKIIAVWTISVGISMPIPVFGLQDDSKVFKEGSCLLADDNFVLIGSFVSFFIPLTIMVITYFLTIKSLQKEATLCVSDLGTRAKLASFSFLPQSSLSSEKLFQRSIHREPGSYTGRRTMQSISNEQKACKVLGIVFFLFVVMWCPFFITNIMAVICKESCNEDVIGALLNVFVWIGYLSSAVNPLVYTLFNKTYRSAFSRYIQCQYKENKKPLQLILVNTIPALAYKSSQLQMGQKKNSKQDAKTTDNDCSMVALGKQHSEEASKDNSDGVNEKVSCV

CCN(C)CCc1c[nH]c2ccc(SC)cc12 [Compound I-13, N-Ethyl-N-methyl-2-(5-(methylthio)-1H-indol-3-yl)ethan-1-amine]
Plasma concentration ([1]; I-13 1.14 mg/kg i.v., 0.25 h, individual rats R04-R06, 1.14 mg/kg): 45.7 ng/mL and 86.5 ng/mL and 113 ng/mL | Plasma concentration ([1]; I-13 1.14 mg/kg i.v., 1 h, individual rats R04-R06, 1.14 mg/kg): 46.7 ng/mL and 29.7 ng/mL | Plasma concentration ([1]; I-13 1.14 mg/kg i.v., 4 h, individual rats R04-R06, 1.14 mg/kg): 3.51 ng/mL and 1.11 ng/mL and 0.449 ng/mL | AUC0-tlast [1, 2]: 109 ng·h/mL and 103 ng·h/mL | Apparent t1/2 [1, 2]: 28.6 min | concentration at 0.25 h ([1]; 1.14 mg/kg, I-13 1.14 mg/kg i.v., 0.25 h, Mean ± SD): 81.7 ± 33.9 ng/mL | concentration at 1 h ([1]; 1.14 mg/kg, I-13 1.14 mg/kg i.v., 1 h, Mean ± SD): 42.9 ± 11.7 ng/mL | concentration at 1 h ([1]; 1.14 mg/kg, I-13 1.14 mg/kg i.v., 1 h, individual rats R04-R06): 52.2 ng/mL | concentration at 4 h ([1]; 1.14 mg/kg, I-13 1.14 mg/kg i.v., 4 h, Mean ± SD): 1.69 ± 1.61 ng/mL | AUC(0-t) ([1]; 1.14 mg/kg, I-13 1.14 mg/kg i.v., Mean ± SD): 105 ± 3.64 ng·h/mL | half-life [1, 3]: 35.1 min | AUC(0-t) [1, 3]: 102 ng·h/mL | half-life ([1]; 1.14 mg/kg, I-13 1.14 mg/kg i.v., mean (n = 2)): 31.9 min | IC50 (human 5-HT2A receptor): 253 nM

CSc1ccc2[nH]cc(CCN(C)C(C)C)c2c1 [Compound I-19, N-Methyl-N-(2-(5-(methylthio)-1H-indol-3-yl)ethyl)propan-2-amine]
Plasma concentration ([1]; I-19 1.2 mg/kg i.v., 0.25 h, individual rats R07-R09, 1.2 mg/kg): 13.4 ng/mL and 70.3 ng/mL and 84.4 ng/mL | Plasma concentration ([1]; I-19 1.2 mg/kg i.v., 1 h, individual rats R07-R09, 1.2 mg/kg): 34.4 ng/mL and 41.4 ng/mL | Plasma concentration ([1]; I-19 1.2 mg/kg i.v., 4 h, individual rats R07-R09, 1.2 mg/kg): 4.95 ng/mL and 4.34 ng/mL | AUC0-tlast [1, 4]: 103 ng·h/mL and 118 ng·h/mL | Apparent t1/2 [1, 4]: 53.3 min | concentration at 0.25 h ([1]; 1.2 mg/kg, I-19 1.2 mg/kg i.v., 0.25 h, Mean ± SD): 56 ± 37.6 ng/mL | concentration at 1 h ([1]; 1.2 mg/kg, I-19 1.2 mg/kg i.v., 1 h, Mean ± SD): 35.4 ± 5.57 ng/mL | concentration at 1 h ([1]; 1.2 mg/kg, I-19 1.2 mg/kg i.v., 1 h, individual rats R07-R09): 30.4 ng/mL | concentration at 4 h ([1]; 1.2 mg/kg, I-19 1.2 mg/kg i.v., 4 h, Mean ± SD): 5.35 ± 1.26 ng/mL | concentration at 4 h ([1]; 1.2 mg/kg, I-19 1.2 mg/kg i.v., 4 h, individual rats R07-R09): 6.76 ng/mL | AUC(0-t) ([1]; 1.2 mg/kg, I-19 1.2 mg/kg i.v., Mean ± SD): 96.1 ± 26.4 ng·h/mL | half-life [1, 5]: 60 min | AUC(0-t) [1, 5]: 66.9 ng·h/mL | half-life ([1]; 1.2 mg/kg, I-19 1.2 mg/kg i.v., mean (n = 2)): 56.8 min | IC50 (human 5-HT2A receptor): 936 nM
